This note sets out measurements from paper PMC8253220, “Molecular design, synthesis and in vitro biological evaluation of thienopyrimidine–hydroxamic acids as chimeric kinase HDAC inhibitors: a challenging approach to combat cancer” (Journal of Enzyme Inhibition and Medicinal Chemistry, 2021).

Common to all, as to format: biochemical
One assay deals with Hela nuclear extracts. The assay can be described thus: Hela nuclear extract HDAC inhibitor assay (BPS Bioscience). The note with it: 10 µM. As to the method: The purpose of the study is to determine the effects of twenty compounds from Misr International University on the enzymatic activities of hela nuclear extracts using an in vitro […]
7a Solution 10mM DMSO 10 10 % DMSO in
7b Solution 10mM DMSO 10 10 % DMSO in
7d Solution 10mM DMSO 10 10 % DMSO in
2.3 Experimental Conditions
2.3.1 Enzymes and Substrates
Assay Catalog # Substrate
Hela Nuclear Exctract 50053 10 µM HDAC Substrate 3
For the hela nuclear extracts, hela cells were grown to 90 % confluency. Hela nuclear extracts were prepared from the Nuclear Extraction Kit from abcam (Catalog # ab113474). The final total protein concentration was calculated to be 2.4 µg/µl. From this, the hela nuclear extracts was diluted 20-fold in HDAC assay buffer and 5 µl of the dilution was added to a 50 µl reaction.
The compounds are dissolved in DMSO. A series of dilutions of the compounds were prepared with 10% DMSO in HDAC assay buffer and 5 µl of the dilution was added to a 50 µl reaction so that the final concentration of DMSO is 1 % in all of […]
The enzymatic reactions for the hela nuclear extract were conducted in duplicate at 37 °C for 60 minutes in a 50 µl mixture containing HDAC assay buffer, 5 µg BSA, an HDAC substrate (see 2.3.1), hela nuclear extract, and a test compound (see 2.2).
After enzymatic reactions, 50μl of 2 x HDAC Developer was added to each well for the hela nuclear extract and the plate was incubated at room temperature for an additional 15 […]
Fluorescence intensity was measured at an excitation of 360 nm and an emission of 460 nm using a Tecan Infinite M1000 microplate reader.
Hela nuclear extract activity assays were performed in duplicates at each concentration.
The fluorescent intensity data were analyzed using the computer software, Graphpad Prism. In the absence of the compound, the fluorescent intensity (Ft) in each data set was defined as 100% activity. In the absence of hela nuclear extract, the fluorescent intensity (Fb) in each data set was defined as 0% activity. The percent activity in the presence of each compound was calculated according to the following equation: %activity = (F-Fb)/(Ft-Fb), where F= the fluorescent intensity in the presence of the compound.
The values of percentage activity were plotted on a bar graph.

The target in a further assay is VEGFR-2 (Homo sapiens, UniProt P35968). Put plainly: In vitro VEGFR-2 tyrosine kinase inhibitory assay (Z'-LYTE, SelectScreen). Conditions: for inhibition at 0.0001 µM: 0.1 nM compound; for inhibition at 0.0001 µM / inhibition at 0.001 µM / inhibition at 0.01 µM / inhibition at 0.1 µM / inhibition at 1 µM: 10 μM ATP, read-out: % Inhibition mean, KDR (VEGFR2); for inhibition at 0.001 µM: 1 nM compound; for inhibition at 0.01 µM: 10 nM compound; for inhibition at 0.1 µM: 100 nM compound; for inhibition at 1 µM: 1000 nM compound; for Mean % inhibition VEGFR-2 / inhibition at 10 µM: 10 µM single dose; for IC50: read-out: IC50 in enzyme assays VEGFR-2. As to the method:
The target compounds were evaluated for their in vitro inhibitory activities against EGFR, VEGFR-2, and HDAC6. The EGFR and VEGFR-2 inhibitory assays were performed at Thermo Fischer Scientific, Madison, WI, USA (SelectScreenServices@thermofisher.com). The HDAC inhibitory assays were performed at BPS Bioscience, San Diego, CA, USA (www.bpsbioscience.com). Initially, all of the synthesised target compounds were evaluated for their percent inhibitory activity against EGFR, VEGFR-2, and HDACs at 10 µM single dose concentration, in which their mean percent inhibition is summarised in (Figure 5, Tables 1 and [2]). Representative compounds were evaluated for their percent inhibitory activity against EGFR and VEGFR-2 at 6 different concentrations (0.1 nM, 1 nM, 10 nM, 100 nM, 1 µM, 10 µM) to subsequently calculate their IC50 values (Table 3). Additionally, all of the synthesised target compounds were submitted to the National Cancer Institute “NCI” Bethesda, Maryland, USA (www.dtp.nci.nih.gov), to evaluate theirs in vitro antiproliferative activities against NCI 60- cancer cell line panel.
In vitro enzyme inhibition determination for the synthesised compounds was carried out in Thermo Fischer Scientific, Madison, WI, USA (SelectScreenServices@thermofisher.com). The EGFR and VEGFR-2 tyrosine kinase % inhibitory activity at a single-dose concentration of 10 µM was performed initially then representative compounds were evaluated at single-dose concentrations of (0.1 nM, 1 nM, 10 nM, 100 nM, 1 µM) using ZYLTE technology. A fluorescence-based, coupled-enzyme format is employed in the biochemical assay and depends on the sensitivity of proteolytic cleavage to non-phosphorylated and phosphorylated peptides. Then IC50 values for selected compounds were determined by GraphPad Prism at Misr international university.

Another assay deals with T1, HDAC6 (Homo sapiens, UniProt Q9UBN7).
T1 construct: purchased BPS Bioscience 50006
T1 sequence (Q9UBN7 1-1215): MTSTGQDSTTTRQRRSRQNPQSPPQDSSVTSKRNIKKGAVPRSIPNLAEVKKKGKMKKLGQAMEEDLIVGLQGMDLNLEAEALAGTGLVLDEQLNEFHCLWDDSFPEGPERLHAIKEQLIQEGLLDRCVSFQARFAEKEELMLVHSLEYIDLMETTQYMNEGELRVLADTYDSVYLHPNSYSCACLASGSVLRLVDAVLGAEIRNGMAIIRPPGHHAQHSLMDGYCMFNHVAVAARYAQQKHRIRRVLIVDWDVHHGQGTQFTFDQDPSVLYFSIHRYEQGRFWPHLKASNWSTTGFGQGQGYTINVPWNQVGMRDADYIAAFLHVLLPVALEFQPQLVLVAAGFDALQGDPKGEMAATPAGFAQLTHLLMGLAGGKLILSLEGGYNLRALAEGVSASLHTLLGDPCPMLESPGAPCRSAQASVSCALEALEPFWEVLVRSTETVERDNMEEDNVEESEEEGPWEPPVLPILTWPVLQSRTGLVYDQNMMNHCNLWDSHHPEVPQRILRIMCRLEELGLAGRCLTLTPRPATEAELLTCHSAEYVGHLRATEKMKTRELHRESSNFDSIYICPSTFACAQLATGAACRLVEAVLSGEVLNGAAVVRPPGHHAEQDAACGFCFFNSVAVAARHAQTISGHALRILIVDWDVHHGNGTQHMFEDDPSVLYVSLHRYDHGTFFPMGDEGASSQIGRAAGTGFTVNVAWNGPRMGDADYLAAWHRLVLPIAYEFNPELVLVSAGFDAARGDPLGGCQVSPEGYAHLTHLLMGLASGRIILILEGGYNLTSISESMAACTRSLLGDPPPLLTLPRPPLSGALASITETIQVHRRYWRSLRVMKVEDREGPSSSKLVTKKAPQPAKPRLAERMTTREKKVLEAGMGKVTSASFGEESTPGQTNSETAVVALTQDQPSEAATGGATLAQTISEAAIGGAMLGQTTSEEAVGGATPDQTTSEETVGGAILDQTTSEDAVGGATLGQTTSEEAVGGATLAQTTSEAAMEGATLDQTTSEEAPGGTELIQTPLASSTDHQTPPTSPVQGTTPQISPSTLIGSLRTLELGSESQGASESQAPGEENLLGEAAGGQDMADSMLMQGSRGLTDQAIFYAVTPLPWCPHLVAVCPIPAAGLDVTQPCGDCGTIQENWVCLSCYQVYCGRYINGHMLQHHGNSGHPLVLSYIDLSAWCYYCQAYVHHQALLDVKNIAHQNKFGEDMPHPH
The assay can be described thus: In vitro HDAC6 inhibitory assay (BPS Bioscience, fluorogenic). The note with it: 10 µM. As to the method:
(1 picture or pasted object on this page, not shown here)
HDAC activity assays were performed in duplicates at each concentration. The

Sequence of VEGFR-2 (P35968 20-1356): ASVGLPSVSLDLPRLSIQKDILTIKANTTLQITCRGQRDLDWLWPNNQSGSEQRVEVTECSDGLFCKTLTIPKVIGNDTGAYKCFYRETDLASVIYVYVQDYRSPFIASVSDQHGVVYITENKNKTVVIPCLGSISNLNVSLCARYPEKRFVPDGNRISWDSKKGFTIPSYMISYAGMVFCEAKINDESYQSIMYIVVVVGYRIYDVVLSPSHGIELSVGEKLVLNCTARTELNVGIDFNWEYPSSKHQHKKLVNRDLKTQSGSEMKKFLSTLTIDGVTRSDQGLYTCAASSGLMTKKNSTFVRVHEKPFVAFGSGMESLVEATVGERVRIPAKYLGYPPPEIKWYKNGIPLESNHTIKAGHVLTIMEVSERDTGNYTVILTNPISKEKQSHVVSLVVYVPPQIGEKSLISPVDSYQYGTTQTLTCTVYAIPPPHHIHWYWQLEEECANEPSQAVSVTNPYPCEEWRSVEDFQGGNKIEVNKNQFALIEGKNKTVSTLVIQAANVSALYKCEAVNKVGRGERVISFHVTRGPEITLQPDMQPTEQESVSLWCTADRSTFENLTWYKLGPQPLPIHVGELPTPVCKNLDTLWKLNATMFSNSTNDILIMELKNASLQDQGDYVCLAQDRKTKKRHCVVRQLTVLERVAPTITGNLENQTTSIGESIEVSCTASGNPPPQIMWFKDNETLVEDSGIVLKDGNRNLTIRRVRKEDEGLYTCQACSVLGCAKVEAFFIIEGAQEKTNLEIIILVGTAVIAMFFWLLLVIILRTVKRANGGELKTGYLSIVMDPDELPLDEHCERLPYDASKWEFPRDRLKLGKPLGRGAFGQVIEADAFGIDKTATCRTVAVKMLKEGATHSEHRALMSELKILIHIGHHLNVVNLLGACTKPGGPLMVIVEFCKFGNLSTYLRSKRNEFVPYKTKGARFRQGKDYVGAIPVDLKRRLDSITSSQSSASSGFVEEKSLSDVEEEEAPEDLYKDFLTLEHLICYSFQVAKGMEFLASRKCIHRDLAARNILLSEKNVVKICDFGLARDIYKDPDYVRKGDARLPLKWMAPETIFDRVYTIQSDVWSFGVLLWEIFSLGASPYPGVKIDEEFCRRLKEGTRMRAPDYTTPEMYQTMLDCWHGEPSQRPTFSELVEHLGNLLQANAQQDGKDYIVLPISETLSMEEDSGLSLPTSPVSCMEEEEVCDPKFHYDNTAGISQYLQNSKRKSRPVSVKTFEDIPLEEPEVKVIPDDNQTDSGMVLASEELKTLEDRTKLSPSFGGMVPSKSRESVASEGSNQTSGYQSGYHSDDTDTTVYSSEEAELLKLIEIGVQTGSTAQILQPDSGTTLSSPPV

Consider `Cc1c(C(=O)NO)sc2ncnc(Nc3ccc(NC(=O)Nc4cccc(C(F)(F)F)c4)cc3)c12` [Compound 7c, 1–(4-(6-(hydroxycarbamoyl)-5-methylthieno[2,3-d]pyrimidin-4-ylamino)phenyl)-3–(3-(trifluoromethyl)phenyl)urea], for which the “% Inhibition Hela Nuclear Extracts” value in the assay on Hela nuclear extracts is 3%. Also, on VEGFR-2, the inhibition at 0.0001 µM was 6%, the inhibition at 0.001 µM was 6%, the inhibition at 0.01 µM was determined as 2% and the inhibition at 0.1 µM stood at 36%. Besides, at VEGFR-2, the inhibition at 1 µM is 90%, the “Mean % inhibition VEGFR-2” value was found to be 100%, the inhibition at 10 µM was found to be 104% and the half-inhibitory concentration (IC50) stood at 191 nM. Also, on HDAC6, the inhibition at 10 µM was 8%.
As for `Cc1c(C(=O)NCCCC(=O)NO)sc2ncnc(Nc3ccc(NC(=O)Nc4cccc(C(F)(F)F)c4)cc3)c12` [Compound 12c, 1–(4-(6-((4-(hydroxyamino)-4-oxobutyl)carbamoyl)-5-methylthieno[2,3-d]pyrimidin-4-ylamino)phenyl)-3–(3-(trifluoromethyl)phenyl)urea], the “% Inhibition Hela Nuclear Extracts” value in the assay with Hela nuclear extracts worked out at 7%. Further, at VEGFR-2, the inhibition at 0.0001 µM was 5%, the inhibition at 0.001 µM was found to be 10%, the inhibition at 0.01 µM was determined as 5% and the inhibition at 0.1 µM stood at 36%. Further, at VEGFR-2, the inhibition at 1 µM was determined as 90%, the “Mean % inhibition VEGFR-2” value came to 100%, the inhibition at 10 µM was found to be 103% and the IC50 was 185 nM. Besides, at HDAC6, the inhibition at 10 µM was found to be 23%.
As to `Cc1c(C(=O)NCCC(=O)NO)sc2ncnc(Nc3ccc(NC(=O)Nc4cccc(C(F)(F)F)c4)cc3)c12` [Compound 11c, 1–(4-(6-((3-(hydroxyamino)-3-oxopropyl)carbamoyl)-5-methylthieno[2,3-d]pyrimidin-4-ylamino)phenyl)-3–(3-(trifluoromethyl)phenyl)urea], the “% Inhibition Hela Nuclear Extracts” value in the assay with Hela nuclear extracts came to 5%. For the same compound, the inhibition at 10 µM against VEGFR-2 amounted to 91%; on HDAC6, 8%.
For the compound `COc1cccc(NC(=O)Nc2ccc(Nc3ncnc4sc(C(=O)NCCCC(=O)NO)c(C)c34)cc2)c1` [Compound 12b, 1–(4-(6-((4-(hydroxyamino)-4-oxobutyl)carbamoyl)-5-methylthieno[2,3-d]pyrimidin-4-ylamino)phenyl)-3–(3-methoxyphenyl)urea], the “% Inhibition Hela Nuclear Extracts” value in the assay on Hela nuclear extracts was determined as 3%. On VEGFR-2, the inhibition at 10 µM stood at 83%. Further, on HDAC6, the “Mean % inhibition HDAC6” value turned out to be 7% and the inhibition at 10 µM came out at 13%.
In the case of `Cc1c(C(=O)NO)sc2ncnc(Nc3cccc4[nH]cnc34)c12` [Compound 15a, 4-(1H-benzo[d]imidazol-4-ylamino)-N-hydroxy-5-methylthieno[2,3-d]pyrimidine-6-carboxamide], the “% Inhibition Hela Nuclear Extracts” value with Hela nuclear extracts came to 3%. Also, at VEGFR-2, the inhibition at 10 µM is 36%. Moreover, on HDAC6, the “Mean % inhibition HDAC6” value came to 8% and the inhibition at 10 µM worked out at 7%.
Take `Cc1c(C(=O)NCCC(=O)NO)sc2ncnc(Nc3ccc(F)c(Cl)c3)c12` [Compound 19d, 4–(3-chloro-4-fluorophenylamino)-N-(3-(hydroxyamino)-3-oxopropyl)-5-methylthieno[2,3-d]pyrimidine-6-carboxamide]: in the assay with Hela nuclear extracts, the “% Inhibition Hela Nuclear Extracts” value stood at 2%. Further, the inhibition at 10 µM against VEGFR-2 was determined as 26%. Further, the “Mean % inhibition HDAC6” value at HDAC6 turned out to be 0%.
As to `Cc1c(C(=O)NO)sc2ncnc(Nc3ccccc3)c12` [Compound 15b, N-hydroxy-5-methyl-4-(phenylamino)thieno[2,3-d]pyrimidine-6-carboxamide], in the assay with Hela nuclear extracts, the “% Inhibition Hela Nuclear Extracts” value is 9%. Moreover, the inhibition at 10 µM is 32% against VEGFR-2 and 30% against HDAC6.
The matching figures for `Cc1c(C(=O)NO)sc2ncnc(Nc3ccc(NC(=S)Nc4ccccc4)cc3)c12` [Compound 7d, 1–(4-(6-(hydroxycarbamoyl)-5-methylthieno[2,3-d]pyrimidin-4-ylamino)phenyl)-3-phenylthiourea]: 3%, 45% and 6%.
The corresponding values for `Cc1c(C(=O)NCCCC(=O)NO)sc2ncnc(Nc3ccc(NC(=O)Nc4ccccc4)cc3)c12` [Compound 12a, 1–(4-(6-((4-(hydroxyamino)-4-oxobutyl)carbamoyl)-5-methylthieno[2,3-d]pyrimidin-4-ylamino)phenyl)-3-phenylurea] are 2%, 48% and 7%.
On to `Cc1c(C(=O)NCCC(=O)NO)sc2ncnc(Nc3ccc(Cl)cc3)c12` [Compound 19c, 4–(4-chlorophenylamino)-N-(3-(hydroxyamino)-3-oxopropyl)-5-methylthieno[2,3-d]pyrimidine-6-carboxamide], for which the “% Inhibition Hela Nuclear Extracts” value in the assay with Hela nuclear extracts stood at 7%. Besides, the inhibition at 10 µM against VEGFR-2 was 21%. For the same compound, on HDAC6, the “Mean % inhibition HDAC6” value turned out to be 9% and the inhibition at 10 µM was 7%.
